According to patent US20230339900A1, “CASEIN KINASE 1 DELTA MODULATORS” (Janssen Pharmaceutica NV, priority 2020, published 2023):
pIC50: −log10 of the molar value.

What was measured:
[1] = target: human recombinant GST cleaved CSNK1D (Homo sapiens (Human), UniProt P48730); assay: Purified enzyme assay (ADP-Glo Kinase Assay); assay type: biochemical; conditions: 2 nM CSNK1D, peptide substrate 150 μM, ATP 20 μM, 45 minutes room temperature
Description: In this assay, CSNK1D phosphorylates a substrate peptide PLSRTL-pS-VASLPGL in the presence of ATP. […] This assay monitors CSNK1D kinase activity by measuring the amount of ADP produced in the assay. A substrate mix is prepared by diluting peptide substrate (final concentration 150 μM) with ATP (final concentration 20 μM) in assay buffer (50 mM Tris/HCl pH 7.4+10 mM MgCl2+1 mM DTT+0.1% BSA). The substrate mix is added to each well of a low volume, 384-well, white opaque plate. Test compounds were diluted in HBSS and added in a dose-response to the plate. To start the reaction, 2 nM of constitutively active human recombinant GST cleaved CSNK1D (University of Dundee, clone DU 19064, stored at 0.28 mg/mL in 50 mM Tris/HCl pH 7.5, 150 mM NaCl, 270 mM Sucrose, 0.1 mM EGTA, 0.1% 2-mercaptoethanol, 0.02% Brij-35.1 mM benzamidine, 0.2 mM PMSF) was added to each well and the plate centrifuged for 5 minutes at 1500 rpm. The total volume of each reaction is 5 ul (2 μL of substrate mix, 1 μL of diluted compounds, and 2 μL of human recombinant CSNK1D). The plates are incubated for 45 minutes at room temperature.
ADP was quantified using the ADP-Glo™ Kinase Assay. ADP-Glo Reagent (5 μL) was added to each well. After a 1 hour incubation at room temperature, Kinase Detection Reagent (10 μL) was added to each well and incubated for 30 minutes. Luminescence was measured on the Perkin Elmer Wallac EnVision 2104 Multi-label Reader. The raw data from the Envision is used to calculate percent activity.

[2] = target: human CSNK1D tagged with nanoluciferase (Homo sapiens (Human), UniProt P48730); assay: Whole Cell nBRET CSNK1D Binding Assay; conditions: living CHO cells stably expressing human CSNK1D-nanoluciferase; NanoBret tracer 130 nM; 2 hours 37° C.; read-out: CSNK1D BRET IC50
Description: This cellular binding assay uses a bioluminescence resonance energy transfer to measure human CSNK1D binding activity in living Chinese Hamster Ovary (CHO) cells that are stably expressing human CSNK1D tagged with nanoluciferase. The cells were grown to confluency in growth media (DMEM:F12, 50 u/mLPen/Strep, […] glutamine, and 0.6 mg/mL G418) in 10 cm^2 dishes. Cells were seeded onto white, opaque 384-well plates (Corning, cat #3704) at a density of 8,000 cells/well in serum-free OptiMEM and left to incubated overnight at 37° C., […]. The next day, test compounds were added in a dose response to the plate followed by a NanoBret tracer (130 nM). The plate is mixed on an orbital shaker for 30 seconds, then placed in a 37° C. incubator for 2 hours. NanoBret Nano-Glo Substrate solution (20 μL) is added to all wells and incubated for 3 minutes at room temperature. Donor (450 nm) and acceptor (630 nm) emissions are then measured within 10 minutes using a ClarioStar plate reader. The data is used to calculate millibret units, defined as (E630/E450)*1000. Bret emissions are then graphed against the log of compound concentrations and these graphs are used to determine the IC50 of each compound.

human recombinant GST cleaved CSNK1D, sequence (P48730 whole entry): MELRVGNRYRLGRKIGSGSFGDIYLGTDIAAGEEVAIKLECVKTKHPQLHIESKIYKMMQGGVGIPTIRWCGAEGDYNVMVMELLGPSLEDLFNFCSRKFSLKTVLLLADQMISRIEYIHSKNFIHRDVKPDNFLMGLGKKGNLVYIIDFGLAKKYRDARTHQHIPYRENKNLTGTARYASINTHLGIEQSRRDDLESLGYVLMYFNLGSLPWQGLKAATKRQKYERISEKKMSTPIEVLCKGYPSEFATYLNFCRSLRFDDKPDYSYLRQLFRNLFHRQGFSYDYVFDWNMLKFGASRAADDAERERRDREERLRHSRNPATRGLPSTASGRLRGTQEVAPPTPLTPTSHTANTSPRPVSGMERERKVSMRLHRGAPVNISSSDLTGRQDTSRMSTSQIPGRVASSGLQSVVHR
human CSNK1D tagged with nanoluciferase, sequence (P48730 whole entry): as above

With `Cc1cc(-c2cn(C3CCC3)nc2-c2ccc(F)cn2)c2cn[nH]c2n1` [Example 71, 4-(1-Cyclobutyl-3-(5-fluoropyridin-2-yl)-1H-pyrazol-4-yl)-6-methyl-1H-pyrazolo[3,4-b]pyridine] as the molecule, how does the AC50 [1] read?
The AC50 was 3 nM.

And the pIC50 [2]?
The pIC50 was 6.95.

How did the AC50 [1] turn out when `Cn1cc(-c2ccnc3[nH]ccc23)c(-c2cccnn2)n1` [Example 48, 4-(1-Methyl-3-pyridazin-3-yl-pyrazol-4-yl)-1H-pyrrolo[2,3-b]pyridine] was run?
The AC50 was 39 nM.

And the pIC50 [2]?
The pIC50 was 5.46.

What does the source list for `COc1nc(-c2nn(C)cc2-c2cc(C)nc3[nH]ncc23)ccc1Cl` [Example 42, 4-(3-(5-Chloro-6-methoxypyridin-2-yl)-1-methyl-1H-pyrazol-4-yl)-6-methyl-1H-pyrazolo[3,4-b]pyridine]?
AC50 [1]: 134 nM; pIC50 [2]: 5.56

For `Cn1cc(-c2cc(N)nc3[nH]ccc23)c(-c2ccc(F)cn2)n1` [Example 119, 4-[3-(5-Fluoro-2-pyridyl)-1-methyl-pyrazol-4-yl]-1H-pyrrolo[2,3-b]pyridin-6-amine], which AC50 [1] is on record?
The AC50 was 2 nM.

And the pIC50 [2]?
Its pIC50 is 7.49.

`CCC(=O)Nc1cc(-c2cn(C)nc2-c2ccc(F)cn2)ccn1` [Example 1, N-(4-(3-(5-Fluoropyridin-2-yl)-1-methyl-1H-pyrazol-4-yl)pyridin-2-yl)propionamide] was tested. Which AC50 [1] did it give?
The AC50 was 5 nM.

What about the pIC50 [2] of the same molecule?
Its pIC50 is 6.97.

Which results are given for `Cn1cc(-c2ccnc3cn[nH]c23)c(-c2ccc(F)cn2)n1` [Example 5, 7-(3-(5-Fluoropyridin-2-yl)-1-methyl-1H-pyrazol-4-yl)-1H-pyrazolo[4,3-b]pyridine]?
AC50 [1]: 15 nM; pIC50 [2]: 6.34

Which results are given for `Cn1cc(-c2c(C(F)(F)F)cnc3[nH]ccc23)c(-c2ccc(F)cn2)n1` [Example 87, 4-[3-(5-Fluoro-2-pyridyl)-1-methyl-pyrazol-4-yl]-5-(trifluoromethyl)-1H-pyrrolo[2,3-b]pyridine]?
AC50 [1]: 4 nM; pIC50 [2]: 7.03

Which results are given for `Cn1cc(-c2ccnc3[nH]ccc23)c(-c2ncco2)n1` [Example 7, 2-(1-Methyl-4-(1H-pyrrolo[2,3-b]pyridin-4-yl)-1H-pyrazol-3-yl)oxazole]?
AC50 [1]: 38 nM; pIC50 [2]: 6.89

`Cn1cc(-c2ccnc3[nH]ccc23)c(-c2cncc(F)c2)n1` [Example 21, 4-[3-(5-Fluoro-3-pyridyl)-1-methyl-pyrazol-4-yl]-1H-pyrrolo[2,3-b]pyridine] was tested. Which AC50 [1] did it give?
Its AC50 is 14 nM.

And the pIC50 [2]?
Its pIC50 is 6.45.

Which AC50 [1] does the source give for `COc1ccc2c(-c3cn(C)nc3-c3ccc(F)cn3)ccnc2c1` [Example 108, 4-[3-(5-Fluoro-2-pyridyl)-1-methyl-pyrazol-4-yl]-7-methoxy-quinoline] here?
Its AC50 is 13 nM.

What about the pIC50 [2] of the same molecule?
Its pIC50 is 6.43.

Which results are given for `Cn1nc(-c2ccc(F)cn2)c(-c2ccnc3[nH]ccc23)c1C1CCC1` [Example 52, 4-(5-Cyclobutyl-3-(5-fluoropyridin-2-yl)-1-methyl-1H-pyrazol-4-yl)-1H-pyrrolo[2,3-b]pyridine]?
AC50 [1]: 13 nM; pIC50 [2]: 6.64

For `Cn1cc(-c2ccnc3[nH]ccc23)c(-c2cccc(F)n2)n1` [Example 29, 4-[3-(6-Fluoro-2-pyridyl)-1-methyl-pyrazol-4-yl]-1H-pyrrolo[2,3-b]pyridine], which AC50 [1] is on record?
The AC50 was 7 nM.

And the pIC50 [2]?
Its pIC50 is 6.73.

What does the source list for `CCn1cc(-c2ccnc3[nH]ccc23)c(-c2ccc(F)cn2)n1` [Example 55, 4-[1-Ethyl-3-(5-fluoro-2-pyridyl)pyrazol-4-yl]-1H-pyrrolo[2,3-b]pyridine]?
AC50 [1]: 7 nM; pIC50 [2]: 7.03

How did the AC50 [1] turn out when `Fc1ccc(-c2nn(C3COC3)cc2-c2ccnc3[nH]ccc23)nc1` [Example 72, 4-[3-(5-Fluoro-2-pyridyl)-1-(oxetan-3-yl)pyrazol-4-yl]-1H-pyrrolo[2,3-b]pyridine] was run?
The AC50 was 8 nM.

And the pIC50 [2]?
The pIC50 was 6.87.

Which results are given for `COc1ncc(-c2nn(C)cc2-c2cc(C)nc3[nH]ncc23)cc1Cl` [Example 142, 4-[3-(5-Chloro-6-methoxy-3-pyridyl)-1-methyl-pyrazol-4-yl]-6-methyl-1H-pyrazolo[3,4-b]pyridine]?
AC50 [1]: 28 nM; pIC50 [2]: 6.42

For `COCCn1cc(-c2cc(C)nc3[nH]ncc23)c(-c2ccc(F)cn2)n1` [Example 64, 4-(3-(5-Fluoropyridin-2-yl)-1-(2-methoxyethyl)-1H-pyrazol-4-yl)-6-methyl-1H-pyrazolo[3,4-b]pyridine], which AC50 [1] is on record?
The AC50 was 19 nM.

And the pIC50 [2]?
The pIC50 was 6.41.

For `CC(C)c1cc2c(-c3cn(C)nc3-c3ccc(F)cn3)ccnc2[nH]1` [Example 83, 4-(3-(5-Fluoropyridin-2-yl)-1-methyl-1H-pyrazol-4-yl)-2-isopropyl-1H-pyrrolo[2,3-b]pyridine], which AC50 [1] is on record?
Its AC50 is 54 nM.

And the pIC50 [2]?
Its pIC50 is 5.80.

How did the AC50 [1] turn out when `Fc1ccc(-c2nn(C(F)F)cc2-c2ccnc3[nH]ncc23)nc1` [Example 66, 4-(1-(Difluoromethyl)-3-(5-fluoropyridin-2-yl)-1H-pyrazol-4-yl)-1H-pyrazolo[3,4-b]pyridine] was run?
The AC50 was 526 nM.

And the pIC50 [2]?
Its pIC50 is 5.97.

For `Cn1cc(-c2ccnc3[nH]ccc23)c(-c2nccs2)n1` [Example 16, 2-(1-Methyl-4-(1H-pyrrolo[2,3-b]pyridin-4-yl)-1H-pyrazol-3-yl)thiazole], which AC50 [1] is on record?
The AC50 was 15 nM.

What about the pIC50 [2] of the same molecule?
Its pIC50 is 6.50.

What does the source list for `Cn1cc(-c2ccnc3[nH]ccc23)c(-c2ccc(OC(F)F)cn2)n1` [Example 35, 4-[3-[5-(Difluoromethoxy)-2-pyridyl]-1-methyl-pyrazol-4-yl]-1H-pyrrolo[2,3-b]pyridine]?
AC50 [1]: 9180 nM; pIC50 [2]: < 5.00

For `Cc1cc(-c2nn(C)cc2-c2cc(C)nc3[nH]ncc23)ccn1` [Example 135, 6-Methyl-4-[1-methyl-3-(2-methyl-4-pyridyl)pyrazol-4-yl]-1H-pyrazolo[3,4-b]pyridine], which AC50 [1] is on record?
The AC50 was 168 nM.

What about the pIC50 [2] of the same molecule?
The pIC50 was 5.15.

For `CC(C)c1n[nH]c2nccc(-c3cn(C)nc3-c3ccc(F)cn3)c12` [Example 122, 4-[3-(5-Fluoro-2-pyridyl)-1-methyl-pyrazol-4-yl]-3-isopropyl-1H-pyrazolo[3,4-b]pyridine], which AC50 [1] is on record?
The AC50 was 15 nM.

And the pIC50 [2]?
The pIC50 was less than 5.00.

For `Cn1cc(-c2ccnc3[nH]ncc23)c(-c2ccncc2F)n1` [Example 19, 4-[3-(3-Fluoro-4-pyridyl)-1-methyl-pyrazol-4-yl]-1H-pyrazolo[3,4-b]pyridine], which AC50 [1] is on record?
Its AC50 is 92 nM.

What about the pIC50 [2] of the same molecule?
The pIC50 was 6.10.

What does the source list for `Cn1cc(-c2ccnc3[nH]cc(CC4CCOC4)c23)c(-c2ccc(F)cn2)n1` (racemic) [Example 97, (R/S)-4-[3-(5-Fluoro-2-pyridyl)-1-methyl-pyrazol-4-yl]-3-(tetrahydrofuran-3-ylmethyl)-1H-pyrrolo[2,3-b]pyridine]?
AC50 [1]: 384 nM; pIC50 [2]: < 5.00

For `Cc1cc(-c2cn(CC(F)(F)F)nc2-c2ccc(F)cn2)c2cn[nH]c2n1` [Example 70, 4-(3-(5-Fluoropyridin-2-yl)-1-(2,2,2-trifluoroethyl)-1H-pyrazol-4-yl)-6-methyl-1H-pyrazolo[3,4-b]pyridine], which AC50 [1] is on record?
Its AC50 is 12 nM.

What about the pIC50 [2] of the same molecule?
The pIC50 was 6.63.

Which results are given for `Cc1cc(-c2cn(CC(C)C)nc2-c2ccc(F)cn2)c2cn[nH]c2n1` [Example 63, 4-(3-(5-Fluoropyridin-2-yl)-1-isobutyl-1H-pyrazol-4-yl)-6-methyl-1H-pyrazolo[3,4-b]pyridine]?
AC50 [1]: 6 nM; pIC50 [2]: 6.60

With `Cn1cc(-c2ccnc3[nH]ccc23)c(-c2ccc(OC(F)(F)F)cn2)n1` [Example 36, 4-[1-Methyl-3-[5-(trifluoromethoxy)-2-pyridyl]pyrazol-4-yl]-1H-pyrrolo[2,3-b]pyridine] as the molecule, how does the AC50 [1] read?
The AC50 was 6480 nM.

And the pIC50 [2]?
Its pIC50 is less than 5.00.
